# Laboratory results taken from US6204266A, “Pharmaceutical, cosmetic and/or food composition having anti-oxidant properties” (Universite Catholique De Louvain Halles Universitaires, priority 1995, dated 2001).
# Key:
# In vivo toxicity in mice = conditions: mouse, in vivo, ip, 0.02 mg/kg
# mice [1] = experiment: In vivo toxicity in mice; conditions: 20 μg/kg, 5 intraperitoneal injections
# [2] = tested on: Cu-Zn superoxide dismutase; experiment: Competition of imidazolopyrazine and superoxide dismutase for superoxide anion (xanthine oxidase/hypoxanthine), luminescence; assay type: biochemical; conditions: for change of slope of the relationship linking IO/I to the superoxide dismutase concentration: when the concentration of the luminescent compound is increased
# Excerpt: This method is based on the capacity of imidazolopyrazines to react with the superoxide anion, emitting light.
# In these experiments, a constant level of superoxide anion is generated by an enzymatic method, by reacting xanthine oxidase with hypoxanthine in the presence of oxygen.
# The maximum light intensity, measured by a luminometer during the competition reaction, is linked to the ratio in [sic] imidazolopyrazine and superoxide dismutase concentrations, as well as to that of the respective rate constants.
# Consequently, knowing the rate constant of the reaction of the competing antioxidant with the superoxide anion (K3), the rate constant of the reaction of the imidazolopyrazine with the superoxide anion (K2) may be calculated:
# By carrying out this experiment at two imidazolopyrazine concentrations, it is possible to eliminate K1 [O2^2- ] corresponding to the spontaneous disproportionation reaction of O2^2-. The slopes A and B of the straight lines linking IO /I [sic] to the superoxide dismutase concentration are: [formula]
# K2 =K3 /([IMPZ]1 -[IMPZ]2)/(1/A)-1/B)
# When the imidazolopyrazine concentration is increased, the slope of the relationship linking IO /I [sic] to the superoxide dismutase concentration should decrease.
# mice [3] = conditions: mouse, in vivo
# [4] = Stability in aqueous medium (buffers pH 4, 7, 10; assayed by luminescence in DMSO); assay type: physicochemical; conditions: irrespective of the pH
# Description: FIG. 7 depicts the stability of the derivative 10 in an aqueous medium. Three 10^-5 M solutions of CLZN-10 were prepared in citrate (pH 4), phosphate (pH 7) and glycine (pH 10) buffers. Aliquots of these solutions were sampled regularly and the CLZN-10 assayed by luminescence in DMSO.
# In comparison with coelenterazine, derivatives comprising additional phenyl groups display better stability.
# Human fibroblasts = experiment: Protection of human fibroblasts against oxidative stress inducer tert-butyl hydroperoxide (t-BHP); assay type: cell-based
# Description: Human fibroblasts were subjected to an oxidative stress inducer (tert-butyl hydroperoxide (t-BHP)) for 6 to 12 hours in the absence and in the presence of increasing doses of coelenterazine and its derivatives.
# In the same experimental series, the efficacy of vitamin E (α-tocopherol) (Troxol®), a major antioxidant of animal cells, was compared.
# [5] = In vitro toxicity on other mammalian cell types (FIG. 11); assay type: cell-based; conditions: pig (EAP) endothelial cells, read-out: concentration at which a toxic effect can possibly be observed
# Description: Similar in vitro toxicity tests were performed on other mammalian (porcine, human, etc.) cell types.
# FIG. 11 depicts the percentage survival of different cell types (fibroblasts, human (ECV) or pig (EAP) endothelial cells) as a function of increasing doses of CLZ-9 (molar). A toxic effect of the products can possibly be observed on a certain cell type at high concentrations (10^-4 M in pigs).
# human fibroblasts (MRC5) = experiment: In vitro toxicity on human fibroblasts (MRC5), total protein content; assay type: cell-based; conditions: concentration of 0.1 mM (10^-4 M), 1% ethanol
# Description: Each of the imidazolopyrazine derivatives tested was applied to human fibroblasts (MRC5) in culture. The doses of the compounds ranged from 10^-8 to 10^-4 M. These compounds were applied 48 hours after the cells were inoculated into wells (volume=150 μl; 3000 cells per well).
# After a further 24 hour period, the culture medium is renewed, the cells are incubated for 72 hours and their level of survival and of growth is evaluated by measuring the total protein contents in each well (Biorad).
# [6] = t-BHP-treated human fibroblasts
smiles,measurement,setting,value
"Oc1ccc(Cc2nc3c(Cc4ccccc4)nc(-c4ccc(O)cc4)cn3c2O)cc1 [coelenterazine, 3,7-dihydro-2-(p-hydroxybenzyl)-6-(p-hydroxyphenyl)-8-benzylimidazo[1,2-a]pyrazyn-3-one]",survival,In vivo toxicity in mice,100%
same,toxicity for mice,mice [1],not toxic
same,rate constant KSOD,[2]; coelenterazine concentration 50 nM,2×10^9
same,rate constant KSOD,[2]; coelenterazine concentration 400 nM,2.5×10^10
same,increase in rate constant KSOD,[2]; coelenterazine concentration multiplied by 8 (from 50 to 400 nM),12.5 fold
same,change of slope of the relationship linking IO/I to the superoxide dismutase concentration,[2],a rise in the slope
same,Weight (in grams) after 0 day,mice [3],16.19 grams
same,Weight (in grams) after 6 days,mice [3],22.82 grams
same,Weight (in grams) after 30 days,mice [3],31.57 grams
same,survival,mice [3],5/5
same,growth retardation,mice [3]; ip,no growth retardation is observed
same,stability in an aqueous medium,[4],only a few hours
same,antioxidant activity compared with vitamin E,Human fibroblasts; [6],equivalent to
"O=c1c(-c2ccccc2)nc2c(Cc3ccccc3)[nH]c(-c3ccc(O)cc3)cn1-2 [CLZN-10, 3,7-dihydro-2-phenyl-6-(p-hydroxyphenyl)-8-benzylimidazo[1,2-a]pyrazyn-3-one]",increase of KSOD with imidazolopyrazine concentration (effect),[2],observed
"Cc1nc2c(Cc3ccccc3)[nH]c(-c3ccc(O)cc3)cn-2c1=O [CLZN-9, 3,7-dihydro-2-methyl-6-(p-hydroxyphenyl)-8-benzylimidazo[1,2-a]pyrazyn-3-one]",increase of KSOD with imidazolopyrazine concentration (effect),[2],observed
same,MCC,[5],100 µM
same,EC100,"Human fibroblasts; Fibroblast, t-BHP-treated human fibroblasts, read-out: concentration at which protection is total",1 µM
same,minimal effective concentration,"Human fibroblasts; Fibroblast, t-BHP-treated human fibroblasts, read-out: concentration from which the improvement of survival is significant",0.02 µM
same,survival of the t-BHP-treated cells,"Human fibroblasts; t-BHP 10^-4 M, without serum (FIG. 8)",most advantageous results
same,antioxidant activity compared with vitamin E,Human fibroblasts; [6],greater than
"Nc1cccc2c(=O)[nH][nH]c(=O)c12 [luminol, reference compound]",change of slope of the relationship linking IO/I to the superoxide dismutase concentration,[2],a regular decrease in the slope
"O=c1c(Cc2ccccc2)nc2c(Cc3ccccc3)[nH]c(-c3ccc(O)cc3)cn1-2 [CLZN-11, 3,7-dihydro-2-benzyl-6-(p-hydroxyphenyl)-8-benzylimidazo[1,2-a]pyrazyn-3-one]",toxicity for human fibroblasts (MRC5),human fibroblasts (MRC5),significant toxicity
"Cc1c(C)c2c(c(C)c1O)CC[C@@](C)(CCC[C@H](C)CCC[C@H](C)CCCC(C)C)O2 [vitamin E, α-tocopherol, reference compound]",protection,"Human fibroblasts; serum (10%) in the culture medium, highest concentrations",60%
